Assay results taken from PubChem BioAssay (NCI).
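Each compound was tested at five concentrations against cells in 96-well plates for 48 hours. Abbreviation: GI50, concentration required for 50% inhibition of growth. TGI is the concentration that stops growth completely.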

Tests used:
Assay in all cases: DTP human tumour cell line panel, 48 h
[1] = tested on: RXF 393 renal
[2] = tested on: HOP-62 NSCLC
[3] = tested on: HCT-116 colon
[4] = tested on: HS 578T breast
[5] = tested on: HL-60(TB) leukemia
[6] = tested on: PC-3 prostate
[7] = tested on: OVCAR-8 ovarian
[8] = tested on: SK-OV-3 ovarian

Structure (SMILES)	TGI [1] [µM]	TGI [2] [µM]	TGI [3] [µM]	TGI [4] [µM]	TGI [5] [µM]	TGI [6] [µM]	TGI [7] [µM]	TGI [8] [µM]	GI50 [2] [µM]	GI50 [4] [µM]	GI50 [5] [µM]	GI50 [8] [µM]
COC(=O)c1ccc(C)cc1C1CN=NC12Cc1cccc(C)c1C2=O (stereo unspecified)	> 100	> 100	> 100	> 100	49.8	70.6	47.1	> 100				
COc1ccc(Cn2c(=O)c(OS(=O)(=O)C(F)(F)F)c(C)c3cc4ccccc4cc32)cc1	> 100	> 100	> 100	> 100	> 100	> 100	> 100	> 100				
CCOC(=O)/C=C(/C(=O)OCC)n1cc(C)c(=O)n(Cc2cn(CCCCOC(C)=O)nn2)c1=O	> 100	> 100	65	59		40.3	25.8	> 100				
O=C1CC(c2cccc([N+](=O)[O-])c2)C2(C(=O)NC(=S)NC2=O)C(c2cccc([N+](=O)[O-])c2)C1 (stereo unspecified)		> 100	43.7	84.3	> 100	> 100	43.6	> 100				
Cc1cc2ccccc2oc(=O)/c1=N\Nc1ccccc1	88.4	46.7	> 100		> 100	> 100	> 100	62.8				
Clc1cc(Cl)nc(Nc2ccc3c(c2)CCC3)n1			> 100	> 100	73	> 100	> 100	> 100				
C/C(=N\Nc1nc2cc(F)ccc2s1)c1ccccn1	6.65	> 21.9	13.2			10.4	1.79	5.37				
C[C@]12CC[C@H]3[C@@H](CC=C4C[C@@H](O)CC[C@@]43C)[C@@H]1C/C(=C\c1ccc([N+](=O)[O-])cc1)[C@@H]2O	21.4	27.7	14	> 100	80.9	33.5	36.9	28.1				
O=C1OC2(CCCCC2)C(Oc2ccc(Cl)cc2)=C1F	> 100	> 100	> 100	> 100	62.8	> 100	> 100	> 100				
CC(C)=CCNc1ncnc2c1ncn2CCC(=O)O	> 100	> 100	> 100	> 100	> 100	> 100	> 100	> 100				
Cc1cc(C)c(S(=O)(=O)N(CCCCCN)OCCCN)c(C)c1	24.8	32.3	32.7	40		28.8	34.1					
CCOC(=O)c1cnc2n(c1=O)[C@H]1CCCC[C@@H]1N2			> 100	> 100	> 100	> 100	> 100	> 100				
CC(C)(C)OC(=O)NCC(c1c[nH]c2ccccc12)c1c[nH]c2ccccc12	17.7	37	30.4	57.8	31.8	29.5	34.4	33.5				
C=C1c2nc3ccccc3n2C=C(c2ccccc2)N1c1ccc(C)cc1	> 100		> 100			> 100	> 100	> 100				
C(=Nc1ccc(-c2nc3ccccc3s2)cc1)c1cccs1	85.3	> 100	> 100	> 100	0.0298	> 100	> 100	> 100				
CC(C)(C)N=C1C(=O)C2(C)CCC1C2(C)C (stereo unspecified)	> 100	> 100	> 100			> 100	> 100	> 100				
O=Cc1c2c(cc3c1CC1(C3)Cc3cc4c(c(C=O)c3C1)CCC4)CCC2	> 100	51.4	33.7	80.5	55.7	> 100	> 100	> 100				
C[C@H](CCc1nc(C#N)c(N)o1)[C@H]1CC[C@H]2[C@@H]3CCC4C[C@@H](O)CC[C@]4(C)[C@H]3C[C@@H](O)[C@]12C (stereo partly specified)	24.7	40.8	26.4	31.6	2.38	16.3	20.3	28.5				
Cc1c2oc(=O)c(C#N)cc2c2ccccn12	> 100		> 100	> 100	> 100	> 100	> 100	> 100				
Cc1oc(N)c(S(=O)(=O)/C(C#N)=C/c2ccccc2[N+](=O)[O-])c1C	52.8	> 100	78.5			99		> 100				
COc1cccc(C2C(C#N)=C(N)Oc3cc(OCCCCCC[P+](c4ccccc4)(c4ccccc4)c4ccccc4)ccc32)c1 (stereo unspecified)		4.16		2.78	0.738			3.26	1.62	0.608	0.263	1.41
O=C(NNC(=O)c1ccc(Cl)cc1NC(=O)C12CC3CC(CC(C3)C1)C2)c1ccc(Cl)cc1	40.3	44.4	58.1	46.6	58.7	82.4	> 100	60.3				
O=S1(=O)N=C(SCc2c[nH]c3ccccc23)N(c2ccccc2)c2ccncc21		> 100	> 100	> 100	> 100	> 100	> 100	> 100				
C=CCN1C(=O)C[C@H](Cc2ccccc2)NC(=O)C[C@H](Cc2ccccc2)N(CC=C)C(=O)C[C@H](Cc2ccccc2)NC(=O)C[C@@H]1Cc1ccccc1	> 100	> 100	> 100	> 100	9.37	> 100	> 100	> 100				
Cc1cccc(NC(=S)Nc2cccc(Cl)c2)n1	> 100	> 100	> 100	> 100	> 100	> 100	> 100	98.6				
COc1c(NC(C)=O)c2ccccc2c2ccccc12	> 100	> 100	> 100	> 100	> 100	> 100	> 100					
